Laboratory results as given in US8916604B2, “Compositions and methods for epigenetic modification of nucleic acid sequences” (Rutgers, The State University of New Jersey, priority 2011, dated 2014).

Tests used:
[1] = system: TRAMP mice; assay: DIM-supplemented diet, prostate tumorigenesis in TRAMP males; format: in vivo, mouse; conditions: for Incidence of palpable tumor: sacrificed at 24 weeks, control 6/19; for Incidence of lymph nodes metastasis: control 5/19; for histological incidence of HG-PIN: control 54%
Method: Female hemizygous C57BL/TGN TRAMP mice, line PB Tag 8247NG, and male C57BL/6 mice were purchased from The Jackson Laboratory (Bar Harbor, Me., U.S.A.). The animals were bred on the same genetic background C57BL/6 and maintained in the Laboratory Animal Service facility at Rutgers University. Housing and care of the animals was performed in accordance with the guidelines established by the University's Animal Research Committee consistent with the NIH Guidelines for the Care and Use of Laboratory Animals, Transgenic males for the studies were obtained as [TRAMP×C57BL/6] F1 or [TRAMP×C57BL/6] […] Throughout the experiment the animals were housed in a temperature-control led room (68-72° F.) with a 12 h light dark cycle, at a relative humidity of 45% to 55%.
DIM was obtained from Sigma-Aldrich (St. Louis, Mo., U.S.A.). MN-76A diets containing 1% DIM were prepared by Research Diets Inc. (New Brunswick, N.J., U.S.A.) and stored at −20° C. The dose was chosen based in part on studies reported previously Anderton et al., Drug Metab Dispos. 2004; 32: 632-8; and Xue et al., J Nutr Biochem. 2008; 19: 336-44). In our present study, 1% DIM was well-tolerated with these TRAMP mice. The control TRAMP males (n=19) received A1N-76A diets throughout the experiment while the treated TRAMP males received 1% DIM diet starting from eight weeks of age (n=9) as Group 1 (D-G1) and Group 2 (D-G2) starting from twelve weeks of age (n=8) (FIG. 12A). Fresh diets were added to the cages twice weekly.
TRAMP males were weighed weekly and the overall health of the animals was monitored on a regular basis. All mice were sacrificed at the age of 24 weeks by carbon dioxide euthanasia and the genitourinary apparatus (GU) consisting of the seminal vesicles, prostate, and bladder were isolated for further analyses (FIG. 12B).
The dorso-lateral prostate (n=5) was excised and fixed in 10% formalin for 24 b and then transferred to 70% ethanol for 24 h. After dehydration processing, and embedding with paraffin, tissue sections ([…]) were cut from paraffin embedded prostate tissue and mounted on slides. The sections were stained with Hematoxylin and Eosin (H&E) to examine any neoplastic changes. Sections were evaluated by a histopathologist in a blinded fashion to classify prostatic intra-epithelial neoplasia (PIN) lesion, as we have reported previously (8, 12, 13, 30), Lesions were classified as PIN I, PIN II, PIN III, and PIN IV (Park et al., Am J Pathol. 2002; 161: 727-35). For ease of classification, PIN I and PIN II were combined as low grade PIN (LG-PIN) while PIN III and PIN IV were combined as high grade PIN (HG-PIN) as we have performed previously (8, 12, 30, 31).

[2] = system: first 5 CpGs in the promoter region of Nrf2 gene; assay: Bisulfite genomic sequencing of TRAMP C1 cells; format: cell-based, mouse; conditions: 5 days, untreated control 96.8%
Method: The DIM used in the study contains approximately 98% of DIM purchased from Sigma-Aldrich t St. Louis, Mo., USA), TRAMP C1 cells (provided by Dr. Barbara Foster, Department of Pharmacology and Therapeutics, Roswell Park Cancer institute, Buffalo. NY), originally derived from TRAMP prostate tumor, were cultured in Dulbecco's Modified Eagle's Medium (Invitrogen Corp., Carlsbad, Calif. U.S.A.) supplemented with 10% (V/V) fetal bovine serum (FBS) (Invitrogen Corp., Grand Island, N.Y., U.S.A.), penicillin 100 U/ml, and streptomycin 100 μg/ml (Invitrogen Corp., Grand Island, N.Y., U.S.A.), Cells were maintained in a humidified incubator with 5% CO2 at 37° C. Cells were seeded in 10 cm plates for 24 h and then treated with 0.1% DMSO (control) or different concentrations of DIM in 1% FBS containing medium for 5 days. The medium was changed every 2 days (20),
Genomic DNA was isolated from the control or DIM treated TRAMP C1 cells and TRAMP dorso-lateral prostate tissues collected from control and DIM treated groups pooled and homogenized using the DNeasy tissue kit (Qiagen, Valencia, Calif., U.S.A.). The genomic DNAs were extracted and subjected to bisulfite conversion carried out using 750 ng of genomic DNA and applying to EZ DNA Methylation Gold Kits (Zymo Research Corp., Orange, Calif., U.S.A.) following the manufacturer's instructions. […]

[3] = D-G2: 1% DIM diet from 12 weeks of age, p<0.05

c1ccc2c(Cc3c[nH]c4ccccc34)c[nH]c2c1 [DIM, 3,3′-diindolylmethane]
Incidence of palpable tumor ([1]; D-G1: 1% DIM diet from 8 weeks of age): 1/9^a, | Incidence of lymph nodes metastasis ([1]; D-G1: 1% DIM diet from 8 weeks of age, p<0.05): 0/9^b, # | histological incidence of carcinoma ([1]; D-G1, control 46%): 20% | histological incidence of HG-PIN ([1]; D-G1): 20% | wet genitourinary apparatus (GU) weight ([1]; D-G1 and D-G2 vs non-treated control, p<0.05): statistically significant decrease | histological incidence of LG-PIN ([1]; D-G2): 20% | histological incidence of carcinoma ([1]; D-G2): no carcinoma | Incidence of palpable tumor [1, 3]: 0/8^a, * | Incidence of lymph nodes metastasis [1, 3]: 0/8^b, # | histological incidence of HG-PIN ([1]; D-G2): 80% | incidence of lymph node metastasis ([1]; DIM-treated mice overall vs 26.3% in control): 0% | percentage of palpable tumor ([1]; DIM-treated mice overall vs 31.6% in control): 5.8% | methylation of the first 5 CpGs of Nrf2 promoter ([2]; 2.5 μM): 73.7% | methylation of the first 5 CpGs of Nrf2 promoter ([2]; 5 μM): 55.8%
